Measured values from the NIST ThermoML archive (doi:10.1021/je0604232).
Numbers after ± are expanded uncertainties.

Experiment: molar heat capacity at constant pressure
Conditions: Liquid

CC(O)CN (configuration not stated) [1-amino-2-propanol]
101 kPa
Conditions | molar heat capacity at constant pressure [J/K/mol]
303.15 K | 209 ± 2
308.15 K | 213 ± 2
313.15 K | 214 ± 2
318.15 K | 215 ± 2
323.15 K | 217 ± 2
328.15 K | 218 ± 2
333.15 K | 221 ± 2
338.15 K | 223 ± 2
343.15 K | 225 ± 2
348.15 K | 228 ± 2
353.15 K | 230 ± 2

CN(C)CCO [2-(N,N-dimethylamino)ethanol]
101 kPa
Conditions | molar heat capacity at constant pressure [J/K/mol]
303.15 K | 213 ± 2
308.15 K | 215 ± 2
313.15 K | 217 ± 2
318.15 K | 219 ± 2
323.15 K | 221 ± 2
328.15 K | 222 ± 2
333.15 K | 223 ± 2
338.15 K | 223 ± 2
343.15 K | 223 ± 2
348.15 K | 224 ± 2
353.15 K | 226 ± 2

CNCCO [2-(methylamino)ethanol]
101 kPa
Conditions | molar heat capacity at constant pressure [J/K/mol]
303.15 K | 194 ± 2
308.15 K | 199 ± 2
313.15 K | 200 ± 2
318.15 K | 202 ± 2
323.15 K | 203 ± 2
328.15 K | 205 ± 2
333.15 K | 206 ± 2
338.15 K | 207 ± 2
343.15 K | 208 ± 2
348.15 K | 210 ± 2
353.15 K | 212 ± 2

NCCO [2-aminoethan-1-ol]
101.33 kPa
Conditions | molar heat capacity at constant pressure [J/K/mol]
303.15 K | 168 ± 1
308.15 K | 169 ± 1
313.15 K | 169 ± 1
318.15 K | 171 ± 2
323.15 K | 173 ± 2
328.15 K | 174 ± 2
333.15 K | 175 ± 2
338.15 K | 178 ± 2
343.15 K | 179 ± 2
348.15 K | 180 ± 2
353.15 K | 182 ± 2

NCCCO [3-amino-1-propanol]
101 kPa
Conditions | molar heat capacity at constant pressure [J/K/mol]
303.15 K | 204 ± 2
308.15 K | 207 ± 2
313.15 K | 208 ± 2
318.15 K | 208 ± 2
323.15 K | 209 ± 2
328.15 K | 210 ± 2
333.15 K | 211 ± 2
338.15 K | 213 ± 2
343.15 K | 214 ± 2
348.15 K | 216 ± 2
353.15 K | 217 ± 2

NCCNCCO [N-(2-aminoethyl)ethanolamine]
101 kPa
Conditions | molar heat capacity at constant pressure [J/K/mol]
303.15 K | 279 ± 2
308.15 K | 284 ± 2
313.15 K | 285 ± 2
318.15 K | 286 ± 2
323.15 K | 287 ± 2
328.15 K | 289 ± 2
333.15 K | 290 ± 2
338.15 K | 292 ± 2
343.15 K | 293 ± 2
348.15 K | 295 ± 2
353.15 K | 296 ± 2

CN(CCO)CCO [N-methyldiethanolamine]
101.33 kPa
Conditions | molar heat capacity at constant pressure [J/K/mol]
303.15 K | 273 ± 2
308.15 K | 276 ± 2
313.15 K | 279 ± 2
318.15 K | 282 ± 2
323.15 K | 285 ± 2
328.15 K | 288 ± 2
333.15 K | 290 ± 2
338.15 K | 294 ± 2
343.15 K | 298 ± 2
348.15 K | 301 ± 3
353.15 K | 304 ± 3
